The conditions of data set [1]: pH 7.4.
Protocol: (§1) A solution of the compound (e.g., glucagon or analogues thereof) was prepared in a 0.01M HCl solution. Then 0.1 mL of the stock solution was diluted to 1 mL with HCl (0.01M) and the UV absorbance was measured (to 280 nm) with NanoDrop UV spectrometer (NanoDrop 1000 from Thermo Fischer Company). The pH of the remaining stock solution was adjusted to pH 7 using Na2HPO4 (0.1M) and the solution was allowed to stand overnight at 4° C. Then the solution was centrifuged three times (5 min, 4000 min^−1), 0.1 mL of the supernatant was removed and diluted to 1 mL with HCl solution (0.01M). The final UV absorbance was measured. The solubility was accessible by the following formula: (Final Absorbance/Initial Absorbance)×100=Percent Soluble
A short description of data set [2]: Solubility assay (Example 2, percent soluble by UV absorbance). Conditions: PBS buffer (0.1M) at pH 7.4.
Protocol: as §1
Data set [3] is described as follows: Stability assay in NaCl 0.9% aqueous solution (RP-HPLC). In kind it is physicochemical. Conditions: 1 mg/mL.
Protocol: A solution of 1 mg/mL of peptide or peptidomimetic (glucagon or analog thereof) was prepared in a NaCl 0.9% aqueous solution and stored at room temperature, or 4° C., or 37° C. and or 50° C. The samples were analyzed by RP-HPLC on a Dionex U3000SD using a Macherey-Nagel Nucleodur C18ec column (4×100 mm, 3 μm) at a flow rate of 1 mL/min with UV detection at 200 nm. The mobile phase was composed of 0.1% (v/v) TFA-H2O (Solvent A) and 0.1% (v/v) TFA-CH3CN (Solvent B).
A further data set relates to Wistar Rat. As to the kind of experiment: Rat studies, blood glucose after i.v. dosing (Example 2). In kind it is in vivo. To be noted: Wistar rats, 3 hours fasting, 10 nM/kg i.v., FIGS. 12 and 13.

Where two headings read alike, the source gives them in different places.

Description for Wistar Rat: The rats (Wistar Rat, males, 8-week old, n=6 or 3) were housed in ventilated and enriched housing cages (310×125×127 mm^3) throughout the experimental phase. […] The rates were acclimated for 5 days with standard diet and tap water.

As to “EPHSQGTFTSDYSKYLDSRRAQDFVQWLLNT-NH2 [Peptide 18]”, the “Solubility at 1 mg/mL” value in data set [1] was found to be 18%.
For the substance “K*PHSQGTFTSDYSKYLDSRRAQDFVQWLLNT-NH2 [Peptide 22]”, the “Solubility at 1 mg/mL” value in data set [2] is on record as 34%.
Take “KPKPKPHSQGTFTSDYSKYLDSRRAQDFVQWLLNT-NH2 [Peptide 14]”: the “Percentage of peptide remaining” value was found to be 99% in data set [3] (4° C., 1 month (T0 = 100%)); 99% in data set [3] (4° C., 1 week (T0 = 100%)); 97% in data set [3] (4° C., 5 months (T0 = 100%)); 97% in data set [3] (RT, 1 month (T0 = 100%)); 99% in data set [3] (RT, 1 week (T0 = 100%)); 87% in data set [3] (RT, 5 months (T0 = 100%)). Moreover, in the data set on Wistar Rat, the “Glycogen breakdown (increased blood glucose levels) compared to glucagon” value is on record as “greater glycogen breakdown”. Besides, the “Solubility at 1 mg/mL” value in data set [2] worked out at 77%.

(Values after patent US10889627B2, “Pro-drug peptide with improved pharmaceutical properties” (UREKA SARL, priority 2017, dated 2021).)
